Assay [1] concerns Rattus norvegicus. The assay can be described thus: Percent inhibition of carrageenan-induced foot-pad edema at 30 mg/kg po. Format: functional. (Carrageenan injected into the paw causes an acute inflammation.)
Assay [2] concerns Rattus norvegicus. The assay is described as follows: Percent inhibition of adjuvant-induced arthritis at 10 mg/kg po. Format: functional.
The species entered for assay [3] is Rattus norvegicus. The assay can be described thus: In vitro effect on production of calcium ionophore (A23187) -induced Leukotriene B4 (LTB4) in rat peritoneal cells. Format: functional, cell-based.
The species named for assay [4] is Homo sapiens. The assay can be described thus: Inhibitory effect on production of (COX-1) thromboxane B2 (TXB2) in human platelet cells. Format: functional, cell-based.
For the next assay, the target named is T1, Cyclooxygenase (Rattus norvegicus, UniProt P35355+Q63921).
T1 sequence (P35355 whole entry): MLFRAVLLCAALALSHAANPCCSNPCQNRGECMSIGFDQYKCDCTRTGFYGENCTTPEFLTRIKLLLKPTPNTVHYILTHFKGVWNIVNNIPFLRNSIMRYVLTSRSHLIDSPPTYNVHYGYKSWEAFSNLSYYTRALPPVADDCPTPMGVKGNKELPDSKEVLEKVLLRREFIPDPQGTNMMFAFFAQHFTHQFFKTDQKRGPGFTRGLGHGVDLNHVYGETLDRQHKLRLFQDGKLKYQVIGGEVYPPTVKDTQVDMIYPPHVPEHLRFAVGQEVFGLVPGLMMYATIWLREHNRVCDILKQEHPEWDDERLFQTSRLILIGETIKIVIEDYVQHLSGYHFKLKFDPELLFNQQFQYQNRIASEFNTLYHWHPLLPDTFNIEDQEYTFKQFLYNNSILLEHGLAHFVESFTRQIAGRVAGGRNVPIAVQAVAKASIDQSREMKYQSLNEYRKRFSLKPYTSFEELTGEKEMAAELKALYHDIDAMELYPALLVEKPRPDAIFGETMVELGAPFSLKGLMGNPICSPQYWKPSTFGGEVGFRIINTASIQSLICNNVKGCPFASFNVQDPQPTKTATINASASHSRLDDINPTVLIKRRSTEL
T1 sequence (Q63921 whole entry): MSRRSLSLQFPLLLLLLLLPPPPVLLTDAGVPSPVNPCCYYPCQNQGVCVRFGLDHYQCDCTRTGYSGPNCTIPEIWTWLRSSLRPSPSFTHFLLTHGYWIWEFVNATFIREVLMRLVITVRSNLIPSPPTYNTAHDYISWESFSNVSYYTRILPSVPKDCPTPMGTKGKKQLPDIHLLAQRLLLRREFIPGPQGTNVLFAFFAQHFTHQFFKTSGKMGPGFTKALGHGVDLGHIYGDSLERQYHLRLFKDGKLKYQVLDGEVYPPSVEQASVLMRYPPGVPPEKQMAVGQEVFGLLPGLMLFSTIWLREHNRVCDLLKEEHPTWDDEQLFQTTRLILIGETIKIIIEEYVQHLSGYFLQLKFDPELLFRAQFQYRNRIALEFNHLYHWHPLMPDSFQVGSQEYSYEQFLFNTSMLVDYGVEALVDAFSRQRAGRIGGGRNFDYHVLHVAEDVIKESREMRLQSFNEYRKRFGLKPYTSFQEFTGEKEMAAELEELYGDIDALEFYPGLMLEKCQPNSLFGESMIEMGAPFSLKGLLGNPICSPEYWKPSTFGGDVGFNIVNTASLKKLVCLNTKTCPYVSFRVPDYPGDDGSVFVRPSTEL

A short description of assay [5]: (§1) Inhibitory effect on production of cyclooxygenase-2 (COX-2) prostaglandin E2 (PGE2) in human IL1-beta stimulated synovial cells. Type of assay: functional.
The species entered for assay [6] is Rattus norvegicus. The assay is described as follows: (§2) Inhibitory effect for increase in plasma prostaglandin E2 (PGE2) level after arachidonic acid (AA) injection into COX-1 non-lipopolysaccharide-treated rats. Format: functional, organism-based.
For assay [7], the system named is Rattus norvegicus. The assay is described as follows: Dose required for 30% inhibition of carrageenan-induced edema. Type of assay: functional.
Assay [8] is filed under the species Rattus norvegicus. The assay is described as follows: Dose required for Ulcerogenic effect. Type of assay: functional.
Another assay has as its system THP-1. The assay is described as follows: In vitro effect on production of lipopolysaccharide (LPS) -induced IL1-beta in human THP-1 cells. Type of assay: functional, cell-based.
The species entered for assay [9] is Rattus norvegicus. The assay can be described thus: Dose required for 30% inhibition of adjuvant-induced arthritis. Type of assay: functional.
The species named for assay [10] is Rattus norvegicus. The assay is described as follows: (§3) Inhibitory effect for increase in plasma prostaglandin E2 (PGE2) level after arachidonic acid (AA) injection into COX-2 lipopolysaccharide-treated rats. Format: functional, organism-based.
For assay [11], the species on record is Rattus norvegicus.
Description: Lengths of bleeding ulcer of drug-administered group
The species entered for assay [12] is Rattus norvegicus. The assay is described as follows: Inhibitory effect for increase in plasma prostaglandin E2 (PGE2) level after arachidonic acid (AA) injection into, COX-1 non-lipopolysaccharide-treated rats. Format: functional.
The species entered for assay [13] is Rattus norvegicus. Described as §3. Type of assay: functional.
A short description of assay [14]: Inhibitory effect on production of (COX-2) prostaglandin E2 (PGE2) in human IL1-beta stimulated synovial cells. Format: functional.
The nature of assay [15]: as §1.
The species entered for assay [16] is Homo sapiens. The assay can be described thus: Inhibitory effect on production of cyclooxygenase-1 (COX-1) thromboxane B2 (TXB2) in human platelet cells.
Assay [17] has as its system Rattus norvegicus. The assay is described as follows: Percent inhibition of adjuvant-induced arthritis at 10 mg/kg poP<0.01. The note with it: read-out: Inhibition. Type of assay: functional.
The species entered for assay [18] is Rattus norvegicus. The assay can be described thus: Inhibitory effect for increase in plasma prostaglandin E2 (PGE2) level after arachidonic acid (AA) injection intoCOX-1 non-lipopolysaccharide-treated rats. Format: functional.
Assay [19] is filed under the species Rattus norvegicus. The description is as §2. Format: functional.

pIC50: −log10 of the molar value. Where only a bound is given, the exact number is not on record here.

Description for Cyclooxygenase: In vitro inhibitory effect on production of prostaglandin E2 (PGE2) in rat synovial cells.

The pIC50 is −log10 of the IC50, conventionally taken in molar units. A word on the IC50: it is the concentration at which inhibition is half-maximal. A high value points to weaker potency in that assay. One may read the ED50 as the dose at which the effect has come halfway, by size or by number of responders. Consider `CCN1CC/C(=C\c2cc(C(C)(C)C)c(O)c(C(C)(C)C)c2)S1(=O)=O`, for which the inhibition in vivo at 30 mg/kg in the assay with Rattus norvegicus [1] was found to be 49.4%. Moreover, the inhibition in vivo at 10 mg/kg in the assay with Rattus norvegicus [2] turned out to be 37.8%. Moreover, the pIC50 in the assay filed under Rattus norvegicus [3] is 5.60; in the assay listed under Homo sapiens [4] it was 4.57; in [5], 7.96; in the assay on THP-1 it was 5.00. On Cyclooxygenase, this compound yielded an IC50 of 0.0095 µM. Also, the figures for the 50% effective dose (ED50) in the assay listed under Rattus norvegicus [6] and in the assay filed under Rattus norvegicus [10] were > 30 mg/kg and 3.19 mg/kg, respectively. Moreover, the ED30 amounted to 3.5 mg/kg in the assay with Rattus norvegicus [7] and 0.76 mg/kg in the assay listed under Rattus norvegicus [9]. Moreover, in the assay listed under Rattus norvegicus [8], the Dose is 400 mg/kg. In addition, the Ulcer index in the assay listed under Rattus norvegicus [11] is listed as 1.6 mm.

As for `CS(=O)(=O)Nc1ccc([N+](=O)[O-])cc1OC1CCCCC1` [NS-398], the values for the pIC50 (in the assay filed under Homo sapiens [4]; in [14]) were 5.17 and 8.72, respectively. For the same compound, the values for the ED50 in the assay filed under Rattus norvegicus [12] and in the assay listed under Rattus norvegicus [13] were > 30 mg/kg and 1 mg/kg, respectively.

In the case of `Cc1ccc(-c2cc(C(F)(F)F)nn2-c2ccc(S(N)(=O)=O)cc2)cc1` [CELECOXIB], the pIC50 was 8.10 in assay [15] and 4.72 in the assay listed under Homo sapiens [16].

`CN1CC/C(=C\c2cc(C(C)(C)C)c(O)c(C(C)(C)C)c2)S1(=O)=O` had an inhibition in vivo at 30 mg/kg in the assay on Rattus norvegicus [1] of 61.4%. Further, in the assay on Rattus norvegicus [17], the inhibition in vivo at 10 mg/kg stood at 39.4%. Moreover, the pIC50 in the assay listed under Rattus norvegicus [3] is 5.55; with THP-1, 4.55. Besides, the IC50 on Cyclooxygenase was found to be 0.0091 µM. For the same compound, the ED30 was 5.4 mg/kg in the assay with Rattus norvegicus [7] and 0.64 mg/kg in the assay filed under Rattus norvegicus [9]. Also, in the assay filed under Rattus norvegicus [8], the Dose is 400 mg/kg. For the same compound, in the assay filed under Rattus norvegicus [11], the Ulcer index is given as 26.8 mm.

On to `COc1ccc2c(c1)c(CC(=O)O)c(C)n2C(=O)c1ccc(Cl)cc1` [INDOMETHACIN], for which the ED50 in the assay listed under Rattus norvegicus [18] and in the assay listed under Rattus norvegicus [19] was 0.37 mg/kg throughout. The pIC50 in the assay listed under Rattus norvegicus [3] and with THP-1 was < 4.00 in each case. In addition, the results for the ED30 with Rattus norvegicus [7] and in the assay listed under Rattus norvegicus [9] were 0.8 mg/kg and 0.06 mg/kg, respectively. In the assay filed under Rattus norvegicus [8], this compound returned a Dose of 30 mg/kg.
